Measurements: US20110039770A1, “INHIBITORS OF PROTEIN KINASE C ISOFORMS AND USES THEREOF” (PHARMAGAP INC., priority 2005, published 2011)
Read-outs that look alike come from different tables or passages of the source. Where a SMILES comes first, the peptide text is derived from it. Bridges are numbered along the chain shown (N, C = ends). Roman numbers before positions name the chains, in order. [ ]: non-standard residue; d: D form. The star is where a group is joined. PNA(A) = NCCN(CC(=O)*)C(=O)Cn1cnc2c(N)ncnc21; Adenin9ylacetyl = Nc1ncnc2c1ncn2CC(=O)*; Gly(N-2-aminoethyl) = NCCNCC(=O)O

Legend:
[1] = tested on: IMR-32 human neuroblastoma cells
Method: The ability of compounds PKI 1, PKI 2 and PKI 3 to inhibit cancer cell proliferation was tested in vitro using the human neuroblastoma cell line IMR-32. Monolayer cell cultures were trypsinized and the test compound was added at the doses indicated in Table 24 and internalized by pinocytic endocytosis using Influx TM pinocytic cell-loading reagent, a kit from Molecular Probes (Eugene, Oreg.) following the manufacturer's recommendations. The indicated doses refer to the concentration in the loading medium, which was used on 1×10^6 cells in a 10 μl volume, i.e. contained 10 μg to 100 ug of test compound that provides […] per cell. […] The cells were treated on day 0 of the experiment. The cells loaded with test compound were cultured in 96 well plates (5,000 cells in 100 μl per well), and the proliferation was monitored over 3 consecutive days. The increase in cell population was quantified using a Hoechst reagent-based assay (modified from Rao and Otto, 1992, Analytical Biochem. 207:186-192) that measures the total DNA of the population. Fluorescence was measured using a Millipore CytoFluor 2350 plate reader (excitation at 360 nm and emission at 460 nm). The measurements were obtained as relative fluorescence intensity, a value that is directly correlated to the total number of cells. Data are expressed as a percentage of matching controls that were supplemented with culture medium alone.
The ability of the compound TIM 9 to inhibit cancer cell proliferation was tested in vitro using the human neuroblastoma cell line IMR-32 and following the general protocol described in Example 14.
The ability of the compound TIM 11 to inhibit IMR-32 cancer cell proliferation was tested in vitro following the general protocol described in Example 14.
The ability of the compound TIM 10 to inhibit cancer cell proliferation was tested in vitro using the human neuroblastoma IMR-32 cell line and following the general protocol described in Example 14.

PKC beta 2 = molecular target: T1, PKC beta 2 (Homo sapiens, UniProt P05771); test: PepTag Non-Radioactive PKC Assay, purified isoform; format: biochemical; conditions: negative = activation
T1 construct: purchased
T1 sequence (P05771 1-673 isoform P05771-2): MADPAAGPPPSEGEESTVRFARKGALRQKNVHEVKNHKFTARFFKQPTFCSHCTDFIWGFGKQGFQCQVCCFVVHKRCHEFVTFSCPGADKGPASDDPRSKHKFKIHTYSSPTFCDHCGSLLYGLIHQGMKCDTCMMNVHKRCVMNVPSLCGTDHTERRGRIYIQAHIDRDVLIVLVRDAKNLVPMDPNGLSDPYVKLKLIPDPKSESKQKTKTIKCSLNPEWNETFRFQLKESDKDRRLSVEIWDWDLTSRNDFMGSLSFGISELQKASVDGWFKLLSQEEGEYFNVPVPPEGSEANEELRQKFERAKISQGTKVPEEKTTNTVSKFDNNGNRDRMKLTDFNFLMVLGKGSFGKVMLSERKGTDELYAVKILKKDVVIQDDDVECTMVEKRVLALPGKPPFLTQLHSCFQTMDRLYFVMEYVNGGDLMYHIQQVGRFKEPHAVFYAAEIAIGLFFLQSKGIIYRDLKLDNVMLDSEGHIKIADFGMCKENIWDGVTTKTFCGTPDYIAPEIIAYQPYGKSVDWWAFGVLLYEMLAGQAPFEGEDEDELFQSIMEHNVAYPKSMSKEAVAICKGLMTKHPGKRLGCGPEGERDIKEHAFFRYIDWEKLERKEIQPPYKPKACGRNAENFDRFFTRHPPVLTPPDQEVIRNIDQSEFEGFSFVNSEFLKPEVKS
Method: (§1) The inhibitory effect of the PKI compounds 1 to 10 on purified commercially available isoforms representative of the 3 classes of PKC: cPKC (alpha, betaI/II) nPKC (delta and epsilon) aPKC (zeta) was assayed using the PepTag® Non-Radioactive PKC Assay (Promega, Madison, Wis.). The zeta isoform was tested with this assay although its affinity for the substrate provided in the kit was relatively low. The amount of enzyme in the reaction mixture for the PKC zeta assays was multiplied by 2. The assay was used following the manufacturer's recommendations. The principle of the assay is based on the difference in charge of phosphorylated (negatively charged) form versus the non-phoshorylated form of a fluorescent substrate. The two forms can be separated by gel electrophoresis and the negatively charged band excised and the fluorescence measured (exc. 440 nm and em. 590 nm) in 96 well plates on a Galaxy FluoStar plate reader. The PKI compounds were added to the assay mixture at 3 doses: 150, 300 and 600 μM and an extra 75 μM when the inhibition was too high. The assay is strictly biochemical and the doses of the compounds used, therefore, are generally not correlative with in vivo situations.

PKC delta = PKC delta (Homo sapiens, UniProt Q05655); test: PepTag Non-Radioactive PKC Assay, purified isoform; format: biochemical; conditions: negative = activation
Chain of PKC delta (Q05655 whole entry, canonical isoform): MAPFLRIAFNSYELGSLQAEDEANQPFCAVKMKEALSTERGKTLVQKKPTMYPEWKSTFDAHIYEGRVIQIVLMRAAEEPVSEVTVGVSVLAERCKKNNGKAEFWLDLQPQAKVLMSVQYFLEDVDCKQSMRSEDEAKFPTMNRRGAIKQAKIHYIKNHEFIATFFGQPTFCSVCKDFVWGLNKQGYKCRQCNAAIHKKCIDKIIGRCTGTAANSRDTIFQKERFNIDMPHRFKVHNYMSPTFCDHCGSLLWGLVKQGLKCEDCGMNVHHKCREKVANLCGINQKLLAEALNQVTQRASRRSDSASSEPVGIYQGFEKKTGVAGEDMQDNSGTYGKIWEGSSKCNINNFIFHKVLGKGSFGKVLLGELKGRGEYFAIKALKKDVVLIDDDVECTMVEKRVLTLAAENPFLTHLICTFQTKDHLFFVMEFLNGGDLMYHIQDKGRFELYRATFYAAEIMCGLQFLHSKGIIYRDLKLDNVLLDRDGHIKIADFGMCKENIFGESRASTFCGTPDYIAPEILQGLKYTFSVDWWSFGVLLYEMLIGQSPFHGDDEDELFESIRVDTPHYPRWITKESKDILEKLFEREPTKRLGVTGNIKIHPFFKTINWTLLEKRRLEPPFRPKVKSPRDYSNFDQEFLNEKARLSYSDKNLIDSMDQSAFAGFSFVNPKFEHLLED
Method: as §1

PKC epsilon = molecular target: T2, PKC epsilon (Homo sapiens, UniProt Q02156); test: PepTag Non-Radioactive PKC Assay, purified isoform; format: biochemical; design: purchased; conditions: negative = activation
T2 sequence (Q02156 1-737): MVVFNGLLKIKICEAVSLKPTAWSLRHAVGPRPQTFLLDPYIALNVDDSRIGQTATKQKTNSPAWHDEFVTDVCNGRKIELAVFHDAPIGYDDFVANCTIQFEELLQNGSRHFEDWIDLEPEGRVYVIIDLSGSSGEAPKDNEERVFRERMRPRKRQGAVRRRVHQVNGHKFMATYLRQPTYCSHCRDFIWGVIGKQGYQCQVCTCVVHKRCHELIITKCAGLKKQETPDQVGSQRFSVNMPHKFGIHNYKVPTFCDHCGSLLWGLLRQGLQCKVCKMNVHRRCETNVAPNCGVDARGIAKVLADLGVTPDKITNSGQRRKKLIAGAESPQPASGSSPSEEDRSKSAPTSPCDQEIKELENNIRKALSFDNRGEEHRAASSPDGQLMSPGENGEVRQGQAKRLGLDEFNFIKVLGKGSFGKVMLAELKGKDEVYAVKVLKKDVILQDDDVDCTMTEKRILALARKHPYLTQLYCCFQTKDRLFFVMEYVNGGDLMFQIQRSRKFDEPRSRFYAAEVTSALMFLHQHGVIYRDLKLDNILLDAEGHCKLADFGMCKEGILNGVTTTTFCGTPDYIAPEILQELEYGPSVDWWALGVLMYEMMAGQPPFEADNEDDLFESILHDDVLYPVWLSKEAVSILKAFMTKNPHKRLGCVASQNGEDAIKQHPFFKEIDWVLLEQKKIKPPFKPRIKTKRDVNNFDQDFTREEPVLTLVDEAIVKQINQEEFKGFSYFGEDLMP
Method: as §1

PKC beta 1 = PKC beta 1 (Homo sapiens, UniProt P05771); test: PepTag Non-Radioactive PKC Assay, purified isoform; format: biochemical; design: purchased; conditions: negative = activation
Chain of PKC beta 1 (P05771 whole entry, canonical isoform): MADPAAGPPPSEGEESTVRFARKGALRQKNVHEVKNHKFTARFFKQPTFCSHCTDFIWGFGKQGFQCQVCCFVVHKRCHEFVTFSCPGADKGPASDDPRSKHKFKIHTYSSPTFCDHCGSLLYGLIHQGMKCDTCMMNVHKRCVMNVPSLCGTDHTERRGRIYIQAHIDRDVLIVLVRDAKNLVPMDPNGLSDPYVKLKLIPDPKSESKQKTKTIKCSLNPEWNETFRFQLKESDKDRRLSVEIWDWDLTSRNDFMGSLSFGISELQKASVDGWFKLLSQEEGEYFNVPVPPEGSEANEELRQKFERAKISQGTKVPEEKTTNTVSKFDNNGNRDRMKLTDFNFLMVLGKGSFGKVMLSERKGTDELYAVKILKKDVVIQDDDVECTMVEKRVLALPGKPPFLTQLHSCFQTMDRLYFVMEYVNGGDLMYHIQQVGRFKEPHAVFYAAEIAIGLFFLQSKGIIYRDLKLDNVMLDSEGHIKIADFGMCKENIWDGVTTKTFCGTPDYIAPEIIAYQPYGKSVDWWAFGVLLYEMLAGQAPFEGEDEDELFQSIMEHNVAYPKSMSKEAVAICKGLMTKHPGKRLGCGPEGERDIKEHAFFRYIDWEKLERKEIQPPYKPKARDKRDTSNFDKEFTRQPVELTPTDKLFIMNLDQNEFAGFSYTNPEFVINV
Method: as §1

PKC alpha = PKC alpha (Homo sapiens, UniProt P17252); test: PepTag Non-Radioactive PKC Assay, purified isoform; format: biochemical; design: purchased; conditions: negative = activation
Method: as §1

PKC zeta = molecular target: T3, PKC zeta (Homo sapiens, UniProt Q05513); test: PepTag Non-Radioactive PKC Assay, purified isoform; format: biochemical; design: purchased; conditions: enzyme amount x2, negative = activation
T3 sequence (Q05513 1-592): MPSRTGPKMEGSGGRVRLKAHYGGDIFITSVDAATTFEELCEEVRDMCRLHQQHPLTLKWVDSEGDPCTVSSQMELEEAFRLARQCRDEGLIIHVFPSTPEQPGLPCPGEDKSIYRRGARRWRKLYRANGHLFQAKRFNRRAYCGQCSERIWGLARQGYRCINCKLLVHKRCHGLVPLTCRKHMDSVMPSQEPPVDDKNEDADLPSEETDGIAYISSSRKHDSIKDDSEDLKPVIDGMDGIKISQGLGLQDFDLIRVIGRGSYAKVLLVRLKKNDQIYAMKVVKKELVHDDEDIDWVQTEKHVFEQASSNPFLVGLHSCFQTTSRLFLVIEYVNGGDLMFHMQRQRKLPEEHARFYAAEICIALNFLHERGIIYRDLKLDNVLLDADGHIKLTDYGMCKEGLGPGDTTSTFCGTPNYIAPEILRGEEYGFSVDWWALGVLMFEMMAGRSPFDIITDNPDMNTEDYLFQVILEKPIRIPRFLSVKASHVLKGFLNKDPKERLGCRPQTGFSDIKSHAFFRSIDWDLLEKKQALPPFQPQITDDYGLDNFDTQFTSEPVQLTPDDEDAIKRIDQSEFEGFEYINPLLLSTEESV
Method: as §1

[2] = 1.0 mg/mL in loading medium, 24 h
[3] = 1.0 mg/mL in loading medium, 48 h
[4] = 1.0 mg/mL in loading medium, 72 h
[5] = 2.5 mg/mL in loading medium, 24 h
[6] = 2.5 mg/mL in loading medium, 48 h
[7] = 2.5 mg/mL in loading medium, 72 h
[8] = 5.0 mg/mL in loading medium, 24 h
[9] = 5.0 mg/mL in loading medium, 48 h
[10] = 5.0 mg/mL in loading medium, 72 h
[11] = 10.0 mg/mL in loading medium, 24 h
[12] = 10.0 mg/mL in loading medium, 48 h
[13] = 10.0 mg/mL in loading medium, 72 h

Structure (SMILES) | % Inhibition of IMR-32 proliferation [1, 2] [%] | % Inhibition of IMR-32 proliferation [1, 3] [%] | inhibition at 150 µM (PKC beta 2) [%] | inhibition at 300 µM (PKC beta 2) [%] | inhibition at 600 µM (PKC beta 2) [%] | inhibition at 150 µM (PKC delta) [%] | inhibition at 300 µM (PKC delta) [%] | inhibition at 600 µM (PKC delta) [%] | inhibition at 150 µM (PKC epsilon) [%] | inhibition at 300 µM (PKC epsilon) [%] | inhibition at 600 µM (PKC epsilon) [%] | inhibition at 150 µM (PKC beta 1) [%] | inhibition at 300 µM (PKC beta 1) [%] | inhibition at 600 µM (PKC beta 1) [%] | inhibition at 150 µM (PKC alpha) [%] | inhibition at 300 µM (PKC alpha) [%] | inhibition at 600 µM (PKC alpha) [%] | inhibition at 150 µM (PKC zeta) [%] | inhibition at 300 µM (PKC zeta) [%] | inhibition at 600 µM (PKC zeta) [%] | other results
CC(=O)N[C@@H](CC(C)C)C(=O)N[C@@H](CCCNC(=N)N)C(=O)N[C@@H](CCCNC(=N)N)C(=O)N[C@@H](C)C(=O)N[C@@H](CCCCNC(=O)CN(CCN)C(=O)Cn1cnc2c(N)ncnc21)C(=O)N[C@@H](CC(C)C)C(=O)NCC(N)=O [PKI 2] (Ac-LRRAK(PNA(A))LG-NH2; C-terminus assumed) | 49 | 51 | -59 | 61 | 74 | 59 | 79 | 84 | 58 | 67 | 84 | 18 | 52 | 70 | -24 | 35 | 83 | 0 | 6 | 20 | % Inhibition of IMR-32 proliferation [1, 4]: 10%; % Inhibition of IMR-32 proliferation [1, 5]: 29%; % Inhibition of IMR-32 proliferation [1, 6]: 21%; % Inhibition of IMR-32 proliferation [1, 7]: 26%; % Inhibition of IMR-32 proliferation [1, 8]: 31%; % Inhibition of IMR-32 proliferation [1, 9]: 20%; % Inhibition of IMR-32 proliferation [1, 10]: 17%; % Inhibition of IMR-32 proliferation [1, 11]: 31%; % Inhibition of IMR-32 proliferation [1, 12]: 29%; % Inhibition of IMR-32 proliferation [1, 13]: 21%
CC(=O)N[C@@H](Cc1ccccc1)C(=O)N[C@@H](CCCNC(=N)N)C(=O)N[C@@H](CCCNC(=N)N)C(=O)N[C@@H](CCCCNC(=O)CN(CCN)C(=O)Cn1cnc2c(N)ncnc21)C(=O)N[C@@H](Cc1ccccc1)C(=O)N[C@@H](CCCNC(=N)N)C(=O)N[C@@H](CC(C)C)C(N)=O [PKI 3] (Ac-FRRK(PNA(A))FRL-NH2; C-terminus assumed) | 70 | 72 | 31 | 83 | 81 | 32 | 41 | 70 | 38 | 53 | 68 | 37 | 76 | 80 | 47 | 51 | 82 | 37 | 40 | 56 | % Inhibition of IMR-32 proliferation [1, 4]: 72%; % Inhibition of IMR-32 proliferation [1, 5]: 26%; % Inhibition of IMR-32 proliferation [1, 6]: 29%; % Inhibition of IMR-32 proliferation [1, 7]: 14%; % Inhibition of IMR-32 proliferation [1, 8]: 29%; % Inhibition of IMR-32 proliferation [1, 9]: 31%; % Inhibition of IMR-32 proliferation [1, 10]: 22%; % Inhibition of IMR-32 proliferation [1, 11]: 26%; % Inhibition of IMR-32 proliferation [1, 12]: 30%; % Inhibition of IMR-32 proliferation [1, 13]: 22%
CC[C@H](C)[C@H](NC(=O)[C@H](CSSC[C@H](NC(=O)CNC(=O)CN(CCN)C(=O)Cn1cnc2c(N)ncnc21)C(=O)N[C@@H](CCCCN)C(=O)NCC(=O)N[C@@H](CCCCN)C(=O)N[C@@H](Cc1ccccc1)C(=O)N[C@@H](CCCCN)C(=O)N[C@@H](CCCNC(=N)N)C(N)=O)NC(=O)[C@H](Cc1c[nH]cn1)NC(C)=O)C(=O)NCC(=O)N[C@@H](CCCNC(=N)N)C(=O)N[C@@H](Cc1ccccc1)C(=O)N[C@@H](CCCCN)C(N)=O [PKI 1] (I: Adenin9ylacetyl-[Gly(N-2-aminoethyl)]GCKGKFKR-NH2 / II: Ac-HCIGRFK-NH2; disulfide I:3-II:2; C-terminus assumed) | – | – | 78 | 90 | 92 | 56 | 61 | 88 | 54 | 58 | 83 | 71 | 92 | 93 | 78 | 84 | 87 | 15 | 10 | 20 | –
